Measured values as given in ChEMBL document CHEMBL1201862, “PubChem BioAssay data set” (2004).
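Briefly, cells in 96-well plates were exposed to five compound concentrations for 48 h, and endpoints were estimated by linear interpolation. At the GI50, growth is halved.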 Active and inactive are the calls of the source. Cut-off read from the data, not from the text of the source: active = GI50 up to about 1.1 µM and inactive = higher.

Experiments:
Experiment in all cases: DTP human tumour cell line panel, 48 h
IGROV-1 = test system: IGROV-1
SNB-75 = test system: SNB-75
NCI/ADR-RES = test system: NCI/ADR-RES
HL-60 = test system: HL-60
CCRF-CEM = test system: CCRF-CEM
OVCAR-4 = test system: OVCAR-4
NCI-H23 = test system: NCI-H23
BT-549 = test system: BT-549
OVCAR-8 = test system: OVCAR-8
MOLT-4 = test system: MOLT-4
HCC 2998 = test system: HCC 2998
HCT-116 = test system: HCT-116
PC-3 = test system: PC-3
A549 = test system: A549
NCI-H460 = test system: NCI-H460
SW-620 = test system: SW-620
U-251 = test system: U-251
SK-MEL-2 = test system: SK-MEL-2
MDA-MB-435 = test system: MDA-MB-435

SMILES | GI50 (IGROV-1) | GI50 (SNB-75) | GI50 (NCI/ADR-RES) | GI50 (HL-60) | GI50 (CCRF-CEM) | GI50 (OVCAR-4) | GI50 (NCI-H23) | GI50 (BT-549) | GI50 (OVCAR-8) | GI50 (MOLT-4) | GI50 (HCC 2998) | GI50 (HCT-116) | GI50 (PC-3) | GI50 (A549) | GI50 (NCI-H460) | GI50 (SW-620) | GI50 (U-251) | GI50 (SK-MEL-2) | GI50 (MDA-MB-435)
OCc1ccc2c(c1)CC1(Cc3ccccc3C1)C2 | > 10 µM (inactive) | 13.5 µM (inactive) | 16.8 µM (inactive) | 10.7 µM (inactive) | 4.39 µM (inactive) | 34 µM (inactive) | 33 µM (inactive) | 3.77 µM (inactive) | 21.2 µM (inactive) | > 10 µM (inactive) | 27.7 µM (inactive) | 14.3 µM (inactive) | 10.8 µM (inactive) | 20.6 µM (inactive) | 19.6 µM (inactive) | 18.4 µM (inactive) |  |  | 
CC(C)N(/C(F)=N\C(=O)Nc1ccccc1C(F)(F)F)C(C)C | 33.8 µM (inactive) | > 100 µM (inactive) | 41.5 µM (inactive) | 31 µM (inactive) | 37.9 µM (inactive) |  | 67 µM (inactive) |  | 58.1 µM (inactive) | > 10 µM (inactive) | 31.3 µM (inactive) | 36.6 µM (inactive) | 33.3 µM (inactive) | 52.1 µM (inactive) | 68.2 µM (inactive) | 44.7 µM (inactive) | 43.4 µM (inactive) | 22.8 µM (inactive) | 
COC(=O)N/N=C(\C)c1c(O)cc(C)oc1=O | > 100 µM (inactive) | > 100 µM (inactive) |  | 45.2 µM (inactive) | 46 µM (inactive) | > 100 µM (inactive) | > 100 µM (inactive) |  | 59.3 µM (inactive) | 18.5 µM (inactive) | 43.9 µM (inactive) | 98.4 µM (inactive) |  | 29 µM (inactive) | 37.8 µM (inactive) | 25.9 µM (inactive) | 28.8 µM (inactive) | 41.4 µM (inactive) | 
CN1C(=O)C2CCC(=O)N2c2cccnc21 (configuration not stated) | > 100 µM (inactive) |  | > 100 µM (inactive) | > 100 µM (inactive) | > 100 µM (inactive) | > 100 µM (inactive) | > 100 µM (inactive) | > 100 µM (inactive) | > 100 µM (inactive) | > 100 µM (inactive) | > 100 µM (inactive) | > 100 µM (inactive) |  | > 100 µM (inactive) | > 100 µM (inactive) | > 100 µM (inactive) | > 100 µM (inactive) | > 100 µM (inactive) | > 100 µM (inactive)
O=C(CC(C(=O)c1ccsc1)c1cccs1)c1ccccc1 (configuration not stated) | > 100 µM (inactive) | 23.7 µM (inactive) |  | 71.4 µM (inactive) | 80.4 µM (inactive) | 18.3 µM (inactive) | 29.7 µM (inactive) |  | 89.1 µM (inactive) | 36.2 µM (inactive) | > 100 µM (inactive) | 71.4 µM (inactive) |  | 15.6 µM (inactive) | 36.6 µM (inactive) | > 100 µM (inactive) | 98.9 µM (inactive) |  | 57.3 µM (inactive)
COc1ccc(NC(=O)C2=C(SC)C(C#N)C(=O)N=C2N)cc1 (configuration not stated) | 20.3 µM (inactive) |  |  | 31.2 µM (inactive) | 25.7 µM (inactive) | > 100 µM (inactive) | > 100 µM (inactive) | > 100 µM (inactive) |  | 55.3 µM (inactive) | > 100 µM (inactive) | > 100 µM (inactive) | > 100 µM (inactive) | > 100 µM (inactive) | > 100 µM (inactive) | 67.1 µM (inactive) | > 100 µM (inactive) | > 100 µM (inactive) | > 100 µM (inactive)
CC1C(NNc2ccccc2)Oc2cc3c(cc2C1c1ccccc1O)OCO3 (configuration not stated) | 1.7 µM (inactive) | 10.1 µM (inactive) |  | 4.01 µM (inactive) | 1.4 µM (inactive) |  | 12.8 µM (inactive) | 14.2 µM (inactive) | 10 µM (inactive) | 3.17 µM (inactive) | 4.56 µM (inactive) | 4.69 µM (inactive) | 3.2 µM (inactive) | 2.93 µM (inactive) | 2.81 µM (inactive) | 13.7 µM (inactive) | 10.1 µM (inactive) | 10.9 µM (inactive) | 0.946 µM (active)
O=C1C2C3C=C4c5ccccc5N(c5ccccc5)C4(C2C(=O)N1c1ccc(Br)cc1)[C@H]1C(=O)N(c2ccc(Br)cc2)C(=O)[C@@H]31 (some centres not stated) | > 100 µM (inactive) | > 100 µM (inactive) |  | > 100 µM (inactive) | > 100 µM (inactive) | > 100 µM (inactive) | > 100 µM (inactive) |  | > 100 µM (inactive) | 8.89 µM (inactive) |  | > 100 µM (inactive) |  | > 100 µM (inactive) | > 100 µM (inactive) | > 100 µM (inactive) | > 100 µM (inactive) | > 100 µM (inactive) | 
COc1ccc(OC)c(CC(=O)c2ccc(O)c(C(=O)NCCc3ccc(F)cc3)c2)c1 | 3.27 µM (inactive) | 2.55 µM (inactive) | 2.21 µM (inactive) | 2.16 µM (inactive) |  | 4.06 µM (inactive) | 3.12 µM (inactive) | 12 µM (inactive) | 4.23 µM (inactive) | 5.04 µM (inactive) | 4.63 µM (inactive) |  |  | 4.49 µM (inactive) | 3.85 µM (inactive) | 4.18 µM (inactive) | 3.6 µM (inactive) | 2.96 µM (inactive) | 0.615 µM (active)
